Bridge positions count the residues as written; N and C are the ends. Peptide text beside a SMILES is read from it.
How the values were obtained:
Ls-AChBP = target: T1, Ls-AChBP (Lymnaea stagnalis, UniProt P58154); experiment: biochemical; format: binding; details: SEM
T1 construct: made in house

Ac-AChBP = target: T2, Ac-AChBP (Aplysia californica, UniProt Q8WSF8); experiment: biochemical; format: binding; details: SEM
T2 construct: made in house

human α7 nAChR = human α7 nAChR (Homo sapiens, UniProt P36544); experiment: cell-based; details: SEM
Sequence of human α7 nAChR (P36544 23-502 limits assumed): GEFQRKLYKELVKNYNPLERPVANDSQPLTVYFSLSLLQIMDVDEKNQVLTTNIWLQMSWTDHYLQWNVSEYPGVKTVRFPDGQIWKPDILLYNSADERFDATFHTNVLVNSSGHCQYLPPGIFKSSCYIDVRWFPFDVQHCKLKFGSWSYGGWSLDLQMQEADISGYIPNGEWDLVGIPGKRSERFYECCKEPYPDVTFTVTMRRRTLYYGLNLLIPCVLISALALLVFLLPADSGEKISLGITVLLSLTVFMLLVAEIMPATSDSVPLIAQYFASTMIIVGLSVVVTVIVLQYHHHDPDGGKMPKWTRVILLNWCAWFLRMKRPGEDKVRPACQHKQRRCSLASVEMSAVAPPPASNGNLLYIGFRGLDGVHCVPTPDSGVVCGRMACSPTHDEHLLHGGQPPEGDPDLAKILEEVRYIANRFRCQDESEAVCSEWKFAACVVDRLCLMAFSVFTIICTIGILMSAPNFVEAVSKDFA

human α3β4 nAChR = human α3β4 nAChR (Homo sapiens, UniProt P30926+P32297); experiment: cell-based
Sequence of human α3β4 nAChR (P32297 32-505 limits assumed): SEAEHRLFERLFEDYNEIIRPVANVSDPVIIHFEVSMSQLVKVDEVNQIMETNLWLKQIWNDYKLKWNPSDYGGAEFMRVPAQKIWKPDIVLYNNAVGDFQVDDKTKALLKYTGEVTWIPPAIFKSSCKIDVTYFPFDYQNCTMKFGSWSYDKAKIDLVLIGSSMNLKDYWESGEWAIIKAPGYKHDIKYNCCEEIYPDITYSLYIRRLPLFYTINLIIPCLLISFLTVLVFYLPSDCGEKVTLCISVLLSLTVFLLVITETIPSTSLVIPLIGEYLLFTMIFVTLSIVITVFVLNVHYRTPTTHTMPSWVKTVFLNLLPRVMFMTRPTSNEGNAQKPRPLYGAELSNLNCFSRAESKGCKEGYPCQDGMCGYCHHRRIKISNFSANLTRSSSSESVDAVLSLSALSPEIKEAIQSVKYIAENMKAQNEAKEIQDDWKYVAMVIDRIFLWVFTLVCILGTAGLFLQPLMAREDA
Sequence of human α3β4 nAChR (P30926 22-498 limits assumed): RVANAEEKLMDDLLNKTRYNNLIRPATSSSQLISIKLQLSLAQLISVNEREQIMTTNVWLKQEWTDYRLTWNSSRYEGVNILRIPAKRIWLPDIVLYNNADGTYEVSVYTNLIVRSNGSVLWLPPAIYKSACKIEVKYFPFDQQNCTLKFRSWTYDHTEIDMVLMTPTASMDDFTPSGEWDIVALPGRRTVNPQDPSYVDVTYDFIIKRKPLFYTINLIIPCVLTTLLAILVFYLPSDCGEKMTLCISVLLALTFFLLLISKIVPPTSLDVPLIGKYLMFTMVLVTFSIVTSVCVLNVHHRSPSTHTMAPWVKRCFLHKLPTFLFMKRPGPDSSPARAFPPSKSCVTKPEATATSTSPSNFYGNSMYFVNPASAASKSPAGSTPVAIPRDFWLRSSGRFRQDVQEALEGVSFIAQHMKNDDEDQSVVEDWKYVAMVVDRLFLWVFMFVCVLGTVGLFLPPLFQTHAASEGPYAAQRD

T2 sequence (Q8WSF8 18-236 limits assumed): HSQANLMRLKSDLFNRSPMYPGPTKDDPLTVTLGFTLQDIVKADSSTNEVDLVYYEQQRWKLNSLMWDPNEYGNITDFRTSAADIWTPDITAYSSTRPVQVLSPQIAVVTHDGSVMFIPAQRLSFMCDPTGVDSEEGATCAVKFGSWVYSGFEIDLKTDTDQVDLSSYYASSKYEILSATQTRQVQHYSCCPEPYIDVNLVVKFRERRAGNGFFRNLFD
T1 sequence (P58154 20-229 limits assumed): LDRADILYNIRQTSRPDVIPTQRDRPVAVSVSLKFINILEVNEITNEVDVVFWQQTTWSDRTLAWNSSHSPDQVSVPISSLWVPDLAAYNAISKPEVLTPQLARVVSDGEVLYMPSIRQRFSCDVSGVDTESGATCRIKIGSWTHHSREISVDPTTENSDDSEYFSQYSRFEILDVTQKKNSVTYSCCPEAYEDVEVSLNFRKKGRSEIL

**Q.** What does the source list for `CC[C@H](C)[C@@H]1NC(=O)[C@H](CC(N)=O)NC(=O)[C@@H]2CCCN2C(=O)[C@H](CC(N)=O)NC(=O)[C@H](CC(N)=O)NC(=O)[C@H](C(C)C)NC(=O)[C@H](CCCNC(=N)N)NC(=O)[C@@H]2CSSC[C@H](NC(=O)CNC(=O)[C@@H](N)CO)C(=O)N[C@@H](CSSC[C@@H](C(N)=O)NC1=O)C(=O)N[C@@H](CO)C(=O)N[C@@H](CC(N)=O)C(=O)N1CCC[C@H]1C(=O)N[C@@H](C)C(=O)N2` [LsIA] (H-SGCCSNPACRVNNPNIC-NH2; disulfide 3-9, 4-17)?
**A.** IC50 (Ls-AChBP): 210 ± 40 nM; IC50 (Ac-AChBP): 5.44 ± 0.35 nM; IC50 (human α7 nAChR): 70 ± 7 nM; IC50 (human α3β4 nAChR): > 10000 nM

Reference: PMC5374441 (Scientific Reports, 2017)
